According to PubChem BioAssay (NCI):
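At the GI50, growth is halved. TGI is the concentration that stops growth completely.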

What was measured:
Assay in all cases: NCI-60 cell line screen, 384-well format
786-0 renal = test system: 786-0 renal
A498 renal = test system: A498 renal
A549 NSCLC = test system: A549 NSCLC
BT-549 breast = test system: BT-549 breast
CCRF-CEM leukemia = test system: CCRF-CEM leukemia
COLO 205 colon = test system: COLO 205 colon
DU-145 prostate = test system: DU-145 prostate
EKVX NSCLC = test system: EKVX NSCLC
HCC-2998 colon = test system: HCC-2998 colon
HCT-15 colon = test system: HCT-15 colon
HL-60(TB) leukemia = test system: HL-60(TB) leukemia
HOP-62 NSCLC = test system: HOP-62 NSCLC
HOP-92 NSCLC = test system: HOP-92 NSCLC
HS 578T breast = test system: HS 578T breast
HT29 colon = test system: HT29 colon
IGROV1 ovarian = test system: IGROV1 ovarian
K-562 leukemia = test system: K-562 leukemia
KM12 colon = test system: KM12 colon
M14 melanoma = test system: M14 melanoma
MALME-3M melanoma = test system: MALME-3M melanoma
MCF7 breast = test system: MCF7 breast
MDA-MB-231 breast = test system: MDA-MB-231 breast
MDA-MB-435 melanoma = test system: MDA-MB-435 melanoma
MDA-MB-468 breast = test system: MDA-MB-468 breast
MOLT-4 leukemia = test system: MOLT-4 leukemia
NCI-H23 lung = test system: NCI-H23 lung
NCI-H322M lung = test system: NCI-H322M lung
NCI-H522 lung = test system: NCI-H522 lung
NCI/ADR-RES ovarian = test system: NCI/ADR-RES ovarian
OVCAR-3 ovarian = test system: OVCAR-3 ovarian
OVCAR-4 ovarian = test system: OVCAR-4 ovarian
OVCAR-5 ovarian = test system: OVCAR-5 ovarian
OVCAR-8 ovarian = test system: OVCAR-8 ovarian
PC-3 prostate = test system: PC-3 prostate
RPMI-8226 leukemia = test system: RPMI-8226 leukemia
RXF 393 renal = test system: RXF 393 renal
SF-268 CNS = test system: SF-268 CNS
SF-295 CNS = test system: SF-295 CNS
SF-539 CNS = test system: SF-539 CNS
SK-MEL-28 melanoma = test system: SK-MEL-28 melanoma
SK-MEL-5 melanoma = test system: SK-MEL-5 melanoma
SK-OV-3 ovarian = test system: SK-OV-3 ovarian
SN12C renal = test system: SN12C renal
SNB-75 CNS = test system: SNB-75 CNS
SR leukemia = test system: SR leukemia
SW-620 colon = test system: SW-620 colon
UACC-257 melanoma = test system: UACC-257 melanoma
UACC-62 melanoma = test system: UACC-62 melanoma
UO-31 renal = test system: UO-31 renal
CAKI-1 renal = test system: CAKI-1 renal
LOX IMVI melanoma = test system: LOX IMVI melanoma
NCI-H460 NSCLC = test system: NCI-H460 NSCLC
SNB-19 CNS = test system: SNB-19 CNS
T-47D breast = test system: T-47D breast
TK-10 renal = test system: TK-10 renal
U251 glioblastoma = test system: U251 glioblastoma

## CC[C@H](Nc1nc(NCc2cnc(C)cc2C)c2ncn(C(C)C)c2n1)[C@@H](C)O
786-0 renal
  GI50: 227 nM
  TGI: 657 nM
A498 renal
  GI50: 240 nM
  TGI: 648 nM
A549 NSCLC
  GI50: 315 nM
  TGI: > 100000 nM
BT-549 breast
  GI50: 138 nM
  TGI: 294 nM
CCRF-CEM leukemia
  GI50: 160 nM
  TGI: 307 nM
COLO 205 colon
  GI50: 206 nM
  TGI: 508 nM
DU-145 prostate
  GI50: 302 nM
  TGI: 1260 nM
EKVX NSCLC
  GI50: 267 nM
  TGI: 757 nM
HCC-2998 colon
  GI50: 159 nM
  TGI: 380 nM
HCT-15 colon
  GI50: 296 nM
  TGI: 817 nM
HL-60(TB) leukemia
  GI50: 148 nM
  TGI: 282 nM
HOP-62 NSCLC
  GI50: 225 nM
  TGI: 638 nM
HOP-92 NSCLC
  GI50: 230 nM
  TGI: 569 nM
HS 578T breast
  GI50: 134 nM
  TGI: 291 nM
HT29 colon
  GI50: 198 nM
  TGI: 472 nM
IGROV1 ovarian
  GI50: 277 nM
  TGI: 797 nM
K-562 leukemia
  GI50: 286 nM
  TGI: 960 nM
KM12 colon
  GI50: 239 nM
  TGI: 737 nM
M14 melanoma
  GI50: 156 nM
  TGI: 533 nM
MALME-3M melanoma
  GI50: 298 nM
  TGI: 967 nM
MCF7 breast
  GI50: 333 nM
  TGI: 1330 nM
MDA-MB-231 breast
  GI50: 196 nM
  TGI: 767 nM
MDA-MB-435 melanoma
  GI50: 245 nM
  TGI: 693 nM
MDA-MB-468 breast
  GI50: 182 nM
  TGI: 334 nM
MOLT-4 leukemia
  GI50: 184 nM
  TGI: 334 nM
NCI-H23 lung
  GI50: 173 nM
  TGI: 343 nM
NCI-H322M lung
  GI50: 226 nM
  TGI: 501 nM
NCI-H522 lung
  GI50: 180 nM
  TGI: 341 nM
NCI/ADR-RES ovarian
  GI50: 1540 nM
  TGI: 4670 nM
OVCAR-3 ovarian
  GI50: 232 nM
  TGI: 516 nM
OVCAR-4 ovarian
  GI50: 316 nM
  TGI: 1290 nM
OVCAR-5 ovarian
  GI50: 248 nM
  TGI: 691 nM
OVCAR-8 ovarian
  GI50: 225 nM
  TGI: 551 nM
PC-3 prostate
  GI50: 224 nM
  TGI: 594 nM
RPMI-8226 leukemia
  GI50: 149 nM
  TGI: 284 nM
RXF 393 renal
  GI50: 175 nM
  TGI: 349 nM
SF-268 CNS
  GI50: 166 nM
  TGI: 386 nM
SF-295 CNS
  GI50: 224 nM
  TGI: 522 nM
SF-539 CNS
  GI50: 185 nM
  TGI: 383 nM
SK-MEL-28 melanoma
  GI50: 163 nM
  TGI: 335 nM
SK-MEL-5 melanoma
  GI50: 139 nM
  TGI: 291 nM
SK-OV-3 ovarian
  GI50: 452 nM
  TGI: 3390 nM
SN12C renal
  GI50: 217 nM
  TGI: 487 nM
SNB-75 CNS
  GI50: 183 nM
  TGI: 424 nM
SR leukemia
  GI50: 137 nM
  TGI: 269 nM
SW-620 colon
  GI50: 205 nM
  TGI: 780 nM
UACC-257 melanoma
  GI50: 232 nM
  TGI: 445 nM
UACC-62 melanoma
  GI50: 171 nM
  TGI: 397 nM
UO-31 renal
  GI50: 353 nM
  TGI: > 100000 nM

## CCc1c(C#N)c(S[C@@H](C(N)=O)c2ccccc2)nc(N(C)C)c1C#N
786-0 renal
  GI50: > 100000 nM
  TGI: > 100000 nM
A498 renal
  GI50: > 100000 nM
  TGI: > 100000 nM
A549 NSCLC
  GI50: > 100000 nM
  TGI: > 100000 nM
CAKI-1 renal
  GI50: > 100000 nM
  TGI: > 100000 nM
CCRF-CEM leukemia
  GI50: > 100000 nM
  TGI: > 100000 nM
COLO 205 colon
  GI50: > 100000 nM
  TGI: > 100000 nM
DU-145 prostate
  GI50: > 100000 nM
  TGI: > 100000 nM
EKVX NSCLC
  GI50: > 100000 nM
  TGI: > 100000 nM
HCC-2998 colon
  GI50: > 100000 nM
  TGI: > 100000 nM
HCT-15 colon
  GI50: > 100000 nM
  TGI: > 100000 nM
HL-60(TB) leukemia
  GI50: > 100000 nM
  TGI: > 100000 nM
HOP-92 NSCLC
  GI50: 10600 nM
  TGI: > 100000 nM
HS 578T breast
  GI50: 4580 nM
  TGI: > 100000 nM
HT29 colon
  GI50: > 100000 nM
  TGI: > 100000 nM
IGROV1 ovarian
  GI50: > 100000 nM
  TGI: > 100000 nM
K-562 leukemia
  GI50: > 100000 nM
  TGI: > 100000 nM
KM12 colon
  GI50: > 100000 nM
  TGI: > 100000 nM
LOX IMVI melanoma
  GI50: > 100000 nM
  TGI: > 100000 nM
M14 melanoma
  GI50: > 100000 nM
  TGI: > 100000 nM
MALME-3M melanoma
  GI50: 38100 nM
  TGI: > 100000 nM
MCF7 breast
  GI50: > 100000 nM
  TGI: > 100000 nM
MDA-MB-231 breast
  GI50: 37700 nM
  TGI: > 100000 nM
MDA-MB-435 melanoma
  GI50: > 100000 nM
  TGI: > 100000 nM
MDA-MB-468 breast
  GI50: > 100000 nM
  TGI: > 100000 nM
MOLT-4 leukemia
  GI50: > 100000 nM
  TGI: > 100000 nM
NCI-H322M lung
  GI50: > 100000 nM
  TGI: > 100000 nM
NCI-H460 NSCLC
  GI50: > 100000 nM
  TGI: > 100000 nM
NCI/ADR-RES ovarian
  GI50: > 100000 nM
  TGI: > 100000 nM
OVCAR-3 ovarian
  GI50: > 100000 nM
  TGI: > 100000 nM
OVCAR-4 ovarian
  GI50: > 100000 nM
  TGI: > 100000 nM
OVCAR-5 ovarian
  GI50: > 100000 nM
  TGI: > 100000 nM
OVCAR-8 ovarian
  GI50: 3770 nM
  TGI: > 100000 nM
PC-3 prostate
  GI50: > 100000 nM
  TGI: > 100000 nM
RPMI-8226 leukemia
  GI50: > 100000 nM
  TGI: > 100000 nM
RXF 393 renal
  GI50: 2310 nM
  TGI: 6060 nM
SF-268 CNS
  GI50: > 100000 nM
  TGI: > 100000 nM
SF-295 CNS
  GI50: 3830 nM
  TGI: > 100000 nM
SF-539 CNS
  GI50: > 100000 nM
  TGI: > 100000 nM
SK-MEL-28 melanoma
  GI50: > 100000 nM
  TGI: > 100000 nM
SK-MEL-5 melanoma
  GI50: > 100000 nM
  TGI: > 100000 nM
SN12C renal
  GI50: > 100000 nM
  TGI: > 100000 nM
SNB-19 CNS
  GI50: > 100000 nM
  TGI: > 100000 nM
SNB-75 CNS
  GI50: 26400 nM
  TGI: 76800 nM
SR leukemia
  GI50: 3050 nM
  TGI: > 100000 nM
SW-620 colon
  GI50: > 100000 nM
  TGI: > 100000 nM
T-47D breast
  GI50: > 100000 nM
  TGI: > 100000 nM
TK-10 renal
  GI50: > 100000 nM
  TGI: > 100000 nM
U251 glioblastoma
  GI50: > 100000 nM
  TGI: > 100000 nM
UO-31 renal
  GI50: > 100000 nM
  TGI: > 100000 nM
